Tests used:
Type in all cases: functional
[1] = system: Elymus repens; assay: Post-emergence herbicidal activity against three to four-leaf stage Elymus repens (couch grass) assessed as efficacy of weed growth control at 750 g ai/ha under greenhouse conditions
[2] = system: Digitaria sanguinalis; assay: Post-emergence herbicidal activity against two-leaf stage Digitaria sanguinalis (hairy crabgrass) assessed as efficacy of weed growth control at 40 g ai/ha under greenhouse conditions
[3] = system: Solanum nigrum; assay: Post emergence herbicidal activity against four-leaf stage Solanum nigrum (black nightshade) assessed as efficacy of weed growth control at 40 g ai/ha under greenhouse conditions
[4] = system: Capsella bursa-pastoris; assay: Post-emergence herbicidal activity against four-leafstage Capsella bursa-pastoris assessed as efficacy of weed growth control at 60 g ai/ha under greenhouse conditions
[5] = system: Setaria viridis; assay: Post-emergence herbicidal activity against two-leaf stage Setaria viridis (green foxtail) assessed as efficacy of weed growth control at 750 g ai/ha under greenhouse conditions
[6] = system: Stellaria media; assay: Post-emergence herbicidal activity against eight-leaf stage Stellaria media assessed as efficacy of weed growth control at 40 g ai/ha under greenhouse conditions
[7] = system: Echinochloa crus-galli; assay: Post emergence herbicidal activity against three-leaf stage Echinochloa crus-galli (barnyard grass) assessed as efficacy of weed growth control at 40 g ai/ha under greenhouse conditions
[8] = system: Cyperus rotundus; assay: Post-emergence herbicidal activity against four to five-leaf stage Cyperus rotundus assessed as efficacy of weed growth control at 60 g ai/ha under greenhouse conditions
[9] = system: Capsella bursa-pastoris; assay: Post-emergence herbicidal activity against four-leaf stage Capsella bursa-pastoris assessed as efficacy of weed growth control at 80 g ai/ha under greenhouse conditions

COc1cc(OC)nc(NC(=O)NS(=O)(=O)c2ncccc2C(=O)N(C)C)n1 [NICOSULFURON]
Efficacy [1]: <50% | Efficacy [2]: 70% | Efficacy [3]: 50% | Efficacy [4]: 95% | Efficacy [5]: 70% | Efficacy [6]: 70% | Efficacy [7]: 95% | Efficacy [8]: 70% | Efficacy [9]: 95%
